In patent US5159081A, “Intermediates of peripherally selective N-carbonyl-3,4,4-trisubstituted piperidine opioid antagonists” (Eli Lilly and Company, priority 1991, dated 1992):
Structures can show the parent of a compound that is named as a salt. Where two headings read alike, the source gives them in different places.

Assays:
mu receptor = biological target: T1, mu receptor (Rattus norvegicus, UniProt P33535); test: Naloxone [3H] opioid receptor binding assay (mu receptor); parameters: species or system rat (male Sprague Dawley); conditions: 20 min; for Ki: rat whole brain minus cerebellum, pH 7.4, 37° C., read-out: Ki
T1 construct: The brain tissue, rat whole brain minus cerebellum for mu was homogenized; from tissue; host or cells: brain minus cerebellum of male Sprague Dawley rats, homogenate fraction
T1 sequence (P33535 whole entry): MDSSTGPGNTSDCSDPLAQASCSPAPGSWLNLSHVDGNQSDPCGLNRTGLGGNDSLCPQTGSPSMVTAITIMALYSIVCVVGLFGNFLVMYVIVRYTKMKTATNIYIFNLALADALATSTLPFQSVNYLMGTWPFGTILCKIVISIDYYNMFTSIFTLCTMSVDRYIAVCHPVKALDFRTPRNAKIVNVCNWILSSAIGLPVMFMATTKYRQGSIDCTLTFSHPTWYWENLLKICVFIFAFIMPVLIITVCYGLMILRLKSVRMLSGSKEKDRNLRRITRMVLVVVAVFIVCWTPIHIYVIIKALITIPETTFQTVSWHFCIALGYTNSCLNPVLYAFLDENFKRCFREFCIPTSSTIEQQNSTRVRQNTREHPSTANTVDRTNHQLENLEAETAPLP

[1] = tested on: peripheral opioid receptors; test: mouse diarrhea test: precipitated diarrhea in morphine-maintained mice (peripheral opioid activity); type: in vivo
[2] = biological target: peripheral opioid receptors (Mus musculus, UniProt P42866); test: as above; type: in vivo; conditions: mouse diarrhea test, morphine-maintained mice, subcutaneous or oral, 30 min observation
Chain of peripheral opioid receptors (Mus musculus, UniProt P42866) (P42866 whole entry): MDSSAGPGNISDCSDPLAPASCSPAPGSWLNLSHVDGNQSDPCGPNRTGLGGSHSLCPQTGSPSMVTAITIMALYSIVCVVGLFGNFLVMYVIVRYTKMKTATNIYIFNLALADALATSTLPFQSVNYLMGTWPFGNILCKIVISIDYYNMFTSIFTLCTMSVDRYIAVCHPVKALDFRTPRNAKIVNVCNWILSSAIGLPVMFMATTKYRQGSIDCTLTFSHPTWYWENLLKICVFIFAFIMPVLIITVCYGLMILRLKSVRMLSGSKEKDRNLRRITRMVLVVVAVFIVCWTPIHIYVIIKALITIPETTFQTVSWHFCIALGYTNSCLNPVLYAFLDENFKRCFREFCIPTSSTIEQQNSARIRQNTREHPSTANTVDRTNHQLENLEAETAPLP

opioid receptor = biological target: T2, opioid receptor (Mus musculus, UniProt P42866); test: in vivo; parameters: species or system CF-1 male mice; conditions: sc, mouse writhing test, s.c. 20 min before acetic acid, read-out: AD50 (the source's name)
T2 construct: Five CF-1 male mice (Charles River, Portage, MI); from tissue; host or cells: living CF-1 male mice (whole animal, endogenous receptor)
T2 sequence (P42866 whole entry): as above

[3] = pH 7.4, read-out: % displacement at 10 nM
[4] = pH 7.4, read-out: % displacement at 100 nM
[5] = pH 7.4, 10 nM test compound, [3H]naloxone 0.5 nM, mu receptor, read-out: % displacement at 10 nM
[6] = pH 7.4, 100 nM test compound, [3H]naloxone 0.5 nM, mu receptor, read-out: % displacement at 100 nM
[7] = AD50 mouse writhing / ED50 mouse diarrhea, higher = greater relative peripheral antagonism

Compound | inhibition at 0.01 µM (mu receptor; [3]) | inhibition at 0.1 µM (mu receptor; [4]) | Ki (mu receptor; [3H]naloxone 0.5 nM) | Ratio (ratio of AD50 to ED50) ([1]; mouse, in vivo) | ED50 [2] | ED50 (opioid receptor; […]) | inhibition at 0.01 µM (mu receptor; [5]) | inhibition at 0.1 µM (mu receptor; [6]) | Ratio (ratio of AD50 to ED50) [1, 7] | ED50 ([2]; 0.5 h, read-out: ED50) | ED50 (opioid receptor; dose of antagonist that reduced inhibition of writhing by 1.25 mg/kg morphine sulfate to 50%)
C[C@H]1CN(CC(Cc2ccccc2)NC(=O)CCCC(=O)O)CC[C@@]1(C)c1cccc(O)c1 (relative stereo) [Example 15, Trans-5-((2-(4-(3-hydroxyphenyl)-3,4-dimethyl-1-piperidinyl)-1-(D-(phenylmethyl)ethyl)amino))-5-oxopentanoic acid monohydrate] | 80% | 99% | 2.96 nM | 50 | 0.028 mg/kg | 1.39 mg/kg | – | – | – | – | –
C[C@H]1CN(CCN(C(=O)CCC(=O)O)c2ccccc2)CC[C@@]1(C)c1cccc(O)c1 (relative stereo) [Example 19, 4-((2-(Trans-4-(3-hydroxyphenyl)-3,4-dimethyl-1-piperidinyl)ethyl)phenylamino-4-oxobutanoic acid monohydrate] | – | – | – | – | – | 6.3 mg/kg | 48% | 92% | 77 | 0.082 mg/kg | –
C[C@H]1CN(CCN(C(=O)CC(=O)O)C2CCCCC2)CC[C@@]1(C)c1cccc(O)c1 (relative stereo) [Example 21, 3-(cyclohexyl-(2-(trans-4-(3-hydroxyphenyl)-3,4-dimethyl-1-piperidinyl)ethyl)amino)-3-oxopropanoic acid monohydrate] | – | – | – | – | – | 17.1 mg/kg | 53% | 80% | 71 | 0.073 mg/kg | –
C[C@H]1CN(CCN(C(=O)CCC(=O)O)C2CCCC2)CC[C@@]1(C)c1cccc(O)c1 (relative stereo) [Example 24, 4-(cyclopentyl-2-(trans-4-(3-hydroxyphenyl)-3,4-dimethyl-1-piperidinyl)ethyl)amino)-4-oxobutanoic acid hemihydrate] | – | – | – | – | – | 19.2 mg/kg | 48% | 89% | 31 | 0.62 mg/kg | –
CC(C)CCN(CCN1CC[C@@](C)(c2cccc(O)c2)[C@@H](C)C1)C(=O)CCC(=O)O (relative stereo) [Example 28, 4-(3-methylbutyl-(2-(trans-4-(3-hydroxyphenyl)-3,4-dimethyl-1-piperidinyl)ethyl)amino)-4-oxobutanoic acid monohydrate] | – | – | – | – | – | – | 67% | 100% | > 12 | 0.1 mg/kg | > 1.25 mg/kg
CC(C)CN(CCCN1CC[C@@](C)(c2cccc(O)c2)[C@@H](C)C1)C(=O)CCCC(=O)O (relative stereo) [Example 29, 5-(2-Methylpropyl-(3-(trans-4-(3-hydroxyphenyl)-3,4-dimethyl-1-piperidinyl)propyl)amino)-5-oxopentanoic acid monohydrate] | – | – | – | – | – | 7.6 mg/kg | 56% | 88% | 7.7 | 0.99 mg/kg | –
CCOC(=O)CCCC(=O)N(CCN1CC[C@@](C)(c2cccc(O)c2)[C@@H](C)C1)C1CCCCC1 (relative stereo) [Example 32, 5-(Cyclohexyl-(2-(trans-4-(3-hydroxyphenyl)-3,4-dimethyl-1-piperidinyl)ethyl)amino)-5-oxopentanoic acid ethyl ester monohydrochloride] | – | – | – | – | – | 9.4 mg/kg | 40% | 100% | 59 | 0.16 mg/kg | –
C[C@H]1CN(CCN(C(=O)CC(N)=O)C2CCCCC2)CC[C@@]1(C)c1cccc(O)c1 (relative stereo) [Example 34, N-Cyclohexyl-N-(2-(trans-4-(3-hydroxyphenyl)-3,4-dimethyl-1-piperidinyl)ethyl)propanediamidehydrochloride monohydrate] | – | – | – | – | – | 8.2 mg/kg | 77% | 91% | 21 | 0.39 mg/kg | –
CNC(=O)CC(=O)N(CCN1CC[C@@](C)(c2cccc(O)c2)[C@@H](C)C1)C1CCCCC1 (relative stereo) [Example 36, N-Methyl-3-oxo-3-((2-(trans-4-(3-hydroxyphenyl)-3,4-dimethyl-1-piperidinyl)ethyl)cyclohexylamino)propanamidemonohydrochloride monohydrate] | 85% | 99% | 3.01 nM | – | 0.39 mg/kg | 2.9 mg/kg | – | – | 8 | – | –
CCOC(=O)CCC(=O)N(CCN1CC[C@@](C)(c2cccc(O)c2)[C@@H](C)C1)C1CCCCC1 (relative stereo) [Example 71] | 78% | 96% | 3.85 nM | – | 0.29 mg/kg | 3.71 mg/kg | – | – | 13 | – | –
